According to patent US10597388B2, “Pyridazinone herbicides” (FMC CORPORATION, priority 2014, dated 2020):

Experiments:
Assay in all cases: Test C greenhouse herbicide test, pre- and postemergence
Assay type in all cases: in vivo
[1] = test system: lambsquarters (Chenopodium album)
Method in brief: (§1)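 Preemergence: seeds sown in a loam soil–sand blend and sprayed with test chemicals in a non-phytotoxic solvent mixture containing surfactant. Postemergence: plants grown in peat-based medium and treated at 2 to 18 cm (1- to 4-leaf stage). After 13 to 15 d in a greenhouse, injury was visually rated 0–100 against controls.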

[2] = test system: ryegrass, Italian (Italian ryegrass, Lolium multiflorum)
Method in brief: as §1

[3] = test system: ragweed (common ragweed, Ambrosia elatior)
Method in brief: as §1

[4] = test system: morningglory (Ipomoea coccinea)
Method in brief: as §1

soybean (Glycine max) = test system: soybean (Glycine max)
Method in brief: as §1

[5] = test system: barnyardgrass (Echinochloa crus-galli)
Method in brief: as §1

[6] = test system: johnsongrass (Sorghum halepense)
Method in brief: as §1

[7] = test system: waterhemp (common waterhemp, Amaranthus rudis)
Method in brief: as §1

[8] = test system: nutsedge, yellow (yellow nutsedge, Cyperus esculentus)
Method in brief: as §1

corn (Zea mays) = test system: corn (Zea mays)
Method in brief: as §1

[9] = test system: crabgrass, large (large crabgrass, Digitaria sanguinalis)
Method in brief: as §1

[10] = test system: blackgrass (Alopecurus myosuroides)
Method in brief: as §1

[11] = test system: velvetleaf (Abutilon theophrasti)
Method in brief: as §1

[12] = test system: pigweed (Amaranthus retroflexus)
Method in brief: as §1

[13] = test system: wheat (winter wheat, Triticum aestivum)
Method in brief: as §1

[14] = 4 g ai/ha, preemergence, visual rating, scale 0 to 100 (0 no effect, 100 complete control), 13 to 15 d
[15] = Postemergence, 8 g ai/ha, scale 0 to 100 (0 no effect, 100 complete control)
[16] = Postemergence, 16 g ai/ha, scale 0 to 100 (0 no effect, 100 complete control)
[17] = Postemergence, 31 g ai/ha, scale 0 to 100 (0 no effect, 100 complete control)
[18] = Preemergence, 16 g ai/ha, scale 0 to 100, 0 is no effect, 100 is complete control
[19] = Preemergence, 31 g ai/ha, scale 0 to 100, 0 is no effect, 100 is complete control
[20] = Postemergence, 4 g ai/ha, scale 0 to 100 (0 no effect, 100 complete control)
[21] = Preemergence, 8 g ai/ha, scale 0 to 100, 0 is no effect, 100 is complete control

## Cc1ccc2ccc(Cl)cc2c1-c1c(O)c(C)nn(C)c1=O [Compound 144]
[1]; [14]
  Plant response rating, Lambsquarters: 25
[1]; [15]
  Lambsquarters plant response rating: 80
  Plant response rating, Lambsquarters: 90
[1]; [16]
  Plant response rating, Lambsquarters: 90
[1]; [17]
  Plant response rating, Lambsquarters: 90
[1]; [18]
  Plant response rating, Lambsquarters: 65
[1]; [19]
  Plant response rating, Lambsquarters: 100
[2]; [14]
  Plant response rating, Ryegrass, Italian: 80
[2]; [15]
  Plant response rating, Ryegrass, Italian: 35
  Ryegrass, Italian plant response rating: 20
[2]; [16]
  Plant response rating, Ryegrass, Italian: 45
[2]; [17]
  Plant response rating, Ryegrass, Italian: 70
[2]; [18]
  Plant response rating, Ryegrass, Italian: 100
[2]; [19]
  Plant response rating, Ryegrass, Italian: 100
[3]; [14]
  Plant response rating, Ragweed: 70
[3]; [15]
  Plant response rating, Ragweed: 10
  Ragweed plant response rating: 10
[3]; [16]
  Plant response rating, Ragweed: 35
[3]; [17]
  Plant response rating, Ragweed: 35
[3]; [18]
  Plant response rating, Ragweed: 95
[3]; [19]
  Plant response rating, Ragweed: 98
[4]; [14]
  Plant response rating, Morningglory: 25
[4]; [15]
  Morningglory plant response rating: 90
  Plant response rating, Morningglory: 95
[4]; [16]
  Plant response rating, Morningglory: 98
[4]; [17]
  Plant response rating, Morningglory: 98
[4]; [18]
  Plant response rating, Morningglory: 80
[4]; [19]
  Plant response rating, Morningglory: 90
Soybean (Glycine max); [14]
  Plant response rating, Soybean: 10
Soybean (Glycine max); [15]
  Plant response rating, Soybean: 40
  Soybean plant response rating: 45
Soybean (Glycine max); [16]
  Plant response rating, Soybean: 25
Soybean (Glycine max); [17]
  Plant response rating, Soybean: 25
Soybean (Glycine max); [18]
  Plant response rating, Soybean: 0
Soybean (Glycine max); [19]
  Plant response rating, Soybean: 5
[5]; [14]
  Plant response rating, Barnyardgrass: 0
[5]; [20]
  Plant response rating, Barnyardgrass: 15
[5]; [15]
  Plant response rating, Barnyardgrass: 25
[5]; [16]
  Plant response rating, Barnyardgrass: 35
[5]; [17]
  Plant response rating, Barnyardgrass: 65
[5]; [21]
  Plant response rating, Barnyardgrass: 0
[5]; [18]
  Plant response rating, Barnyardgrass: 5
[5]; [19]
  Plant response rating, Barnyardgrass: 35
[6]; [14]
  Plant response rating, Johnsongrass: 0
[6]; [15]
  Johnsongrass plant response rating: 20
  Plant response rating, Johnsongrass: 10
[6]; [16]
  Plant response rating, Johnsongrass: 10
[6]; [17]
  Plant response rating, Johnsongrass: 10
[6]; [18]
  Plant response rating, Johnsongrass: 25
[6]; [19]
  Plant response rating, Johnsongrass: 60
[7]; [14]
  Plant response rating, Waterhemp: 80
[7]; [15]
  Plant response rating, Waterhemp: 90
  Waterhemp plant response rating: 90
[7]; [16]
  Plant response rating, Waterhemp: 90
[7]; [17]
  Plant response rating, Waterhemp: 95
[7]; [18]
  Plant response rating, Waterhemp: 100
[7]; [19]
  Plant response rating, Waterhemp: 100
[8]; [14]
  Plant response rating, Nutsedge, Yellow: 5
[8]; [15]
  Nutsedge, Yellow plant response rating: 10
  Plant response rating, Nutsedge, Yellow: 60
[8]; [16]
  Plant response rating, Nutsedge, Yellow: 60
[8]; [17]
  Plant response rating, Nutsedge, Yellow: 75
[8]; [18]
  Plant response rating, Nutsedge, Yellow: 25
[8]; [19]
  Plant response rating, Nutsedge, Yellow: 40
Corn (Zea mays); [14]
  Plant response rating, Corn: 0
Corn (Zea mays); [20]
  Plant response rating, Corn: 0
Corn (Zea mays); [15]
  Plant response rating, Corn: 0
Corn (Zea mays); [16]
  Plant response rating, Corn: 5
Corn (Zea mays); [17]
  Plant response rating, Corn: 30
Corn (Zea mays); [21]
  Plant response rating, Corn: 0
Corn (Zea mays); [18]
  Plant response rating, Corn: 0
Corn (Zea mays); [19]
  Plant response rating, Corn: 0
[9]; [14]
  Plant response rating, Crabgrass, Large: 0
[9]; [15]
  Crabgrass, Large plant response rating: 20
  Plant response rating, Crabgrass, Large: 20
[9]; [16]
  Plant response rating, Crabgrass, Large: 25
[9]; [17]
  Plant response rating, Crabgrass, Large: 30
[9]; [21]
  Plant response rating, Crabgrass, Large: 5
[9]; [18]
  Plant response rating, Crabgrass, Large: 25
[9]; [19]
  Plant response rating, Crabgrass, Large: 60
[10]; [14]
  Plant response rating, Blackgrass: 30
[10]; [20]
  Plant response rating, Blackgrass: 30
[10]; [15]
  Plant response rating, Blackgrass: 30
[10]; [16]
  Plant response rating, Blackgrass: 20
[10]; [17]
  Plant response rating, Blackgrass: 35
[10]; [21]
  Plant response rating, Blackgrass: 55
[10]; [18]
  Plant response rating, Blackgrass: 70
[10]; [19]
  Plant response rating, Blackgrass: 90
[11]; [14]
  Plant response rating, Velvetleaf: 25
[11]; [15]
  Plant response rating, Velvetleaf: 70
  Velvetleaf plant response rating: 50
[11]; [16]
  Plant response rating, Velvetleaf: 90
[11]; [17]
  Plant response rating, Velvetleaf: 85
[11]; [18]
  Plant response rating, Velvetleaf: 85
[11]; [19]
  Plant response rating, Velvetleaf: 90
[12]; [14]
  Plant response rating, Pigweed: 75
[12]; [15]
  Pigweed plant response rating: 80
  Plant response rating, Pigweed: 85
[12]; [16]
  Plant response rating, Pigweed: 85
[12]; [17]
  Plant response rating, Pigweed: 90
[12]; [18]
  Plant response rating, Pigweed: 100
[12]; [19]
  Plant response rating, Pigweed: 100
[13]; [14]
  Plant response rating, Wheat: 0
[13]; [15]
  Plant response rating, Wheat: 90
  Wheat plant response rating: 90
[13]; [16]
  Plant response rating, Wheat: 95
[13]; [17]
  Plant response rating, Wheat: 95
[13]; [18]
  Plant response rating, Wheat: 70
[13]; [19]
  Plant response rating, Wheat: 90
